Laboratory results as given in patent publication US9107411B2, “Indolecarboxamides and benzimidazolecarboxamides as insecticides and acaricides” (BAYER INTELLECTUAL PROPERTY GMBH, priority 2011, dated 2015).
Where two headings read alike, the source gives them in different places.

Experiments:
[1] = system: Boophilus microplus; experiment: Boophilus microplus test (BOOPMI injection); assay type: in vivo; settings: application rate 20 μg/animal; injected into the abdomen; after 7 days
Method in brief: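 Active ingredient dissolved in DMSO (10 mg in 0.5 ml, then diluted to the test concentration) and injected into the abdomen of Boophilus microplus ticks. Ticks kept in dishes in a climate-controlled room for 7 days. Efficacy (%) is based on laying of fertile eggs; 100% means no tick laid fertile eggs.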

[2] = system: Ctenocephalides felis; experiment: Ctenocephalides felis oral (CTECFE); assay type: in vivo; settings: application rate 100 ppm in citrated cattle blood; after 2 days
Method in brief: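 About 20 unfed adult fleas fed through a Parafilm membrane on citrated cattle blood containing the compound at the desired concentration, diluted from a DMSO concentrate. Kill in % was scored after 2 days, where 100% means all fleas dead and 0% none.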

[3] = system: Lucilia cuprina larvae; experiment: Lucilia cuprina test (LUCICU); assay type: in vivo; settings: application rate 100 ppm; treated horse meat; after 2 days
Method in brief: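 About 20 Lucilia cuprina larvae placed on horse meat treated with compound formulation (DMSO concentrate diluted in water). Kill (%) scored after 2 days, 100% meaning all larvae dead.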

[4] = system: adult Musca domestica; experiment: Musca domestica test (MUSCDO); assay type: in vivo; settings: application rate 100 ppm; treated sponge; after 2 days
Method in brief: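 Compound dissolved in DMSO and diluted with water to the desired concentration was applied to a sponge, and vessels were populated with adult flies. Kill % was scored after 2 days, where 100% means all flies dead.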

[5] = system: Spodoptera litura; experiment: Spodoptera litura test (PRODLI); assay type: in vivo; settings: application rate 20 ppm; synthetic feed, L3 larvae; after 6 days
Experimental: Spodoptera litura Test (PRODLI) Solvent: 3 parts by weight of dimethylformamide Emulsifier: 1 part by weight of polyoxyethylene alkylphenyl ether To produce an appropriate active ingredient formulation, 1 part by weight of active ingredient is mixed with the stated amounts of solvent and emulsifier, and the concentrate is diluted with emulsifier-containing water to the desired concentration. The base of a PET vessel (diameter 7.5 cm, depth 4 cm) is covered with 2.3 g of a pulverulent synthetic feed mixture. Then 5 ml of the active ingredient formulation are added and mixed at the same time with the synthetic feed. After gelation, 5 L3 larvae of the cotton leafworm (Spodoptera litura) are placed into each vessel. After 6 days, the efficacy in % is determined 100% means that all of the larvae have been killed; 0% means that none of the larvae have been killed.

[6] = system: Tetranychus urticae; experiment: Common spider mite test (TETRUR); assay type: in vivo; settings: application rate 100 ppm; bean leaf discs; after 6 days
Experimental: Common Spider Mite Test (TETRUR) Solvent: 3 parts by weight of dimethylformamide Emulsifier: 1 part by weight of polyoxyethylene alkylphenyl ether To produce an appropriate active ingredient formulation, 1 part by weight of active ingredient is mixed with the stated amounts of solvent and emulsifier, and the concentrate is diluted with emulsifier-containing water to the desired concentration. If required, ammonium salts or ammonium salts and penetrants are additionally added in a concentration of 1000 ppm. Discs of bean leaves (Phaseolus vulgaris) infested by all stages of the red spider mite (Tetranychus urticae) are sprayed with an active ingredient formulation of the desired concentration. After 6 days, the efficacy in % is determined. 100% means that all of the spider mites have been killed; 0% means that none of the spider mites have been killed.

[7] = system: Thrips palmi; experiment: Thrips palmi spray test (THRIPL); assay type: in vivo; settings: application rate 20 ppm; cucumber plants; after 6 days
Experimental: Thrips palmi Spray Test (THRIPL)
Solvent: 3 parts by weight of dimethylformamide
Emulsifier: 1 part by weight of polyoxyethylene alkylphenyl ether
To produce an appropriate active ingredient formulation, 1 part by weight of active ingredient is mixed with the stated amounts of solvent and emulsifier, and the concentrate is diluted with emulsifier-containing water to the desired concentration. If required, ammonium salts or ammonium salts and penetrants are additionally added in a concentration of 1000 ppm.
Young cucumber plants (Cucumis sativus) are sprayed with an active ingredient formulation of the desired concentration. After drying, filter paper discs with about 100 thrips eggs (Thrips palmi) are placed onto the treated plants and, to give 100% air humidity, covered with housings.
After 6 days, the efficacy in % feeding damage is determined 100% means that there is no feeding damage; 0% means that there is no difference from the untreated control.

[8] = system: Spodoptera frugiperda; experiment: Spodoptera frugiperda test (SPODFR spray treatment); assay type: in vivo; settings: application rate 100 g/ha; maize leaf discs; after 7 days
Method in brief: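 Maize leaf discs sprayed with active ingredient formulated in acetone/dimethylformamide with emulsifier, diluted in emulsifier-containing water to the desired concentration. After drying, discs were populated with armyworm caterpillars. Efficacy (%) scored after 7 days: 100% all caterpillars killed, 0% none killed.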

[9] = logP (HPLC-MS); assay type: physicochemical

Compound	efficacy (laying of fertile eggs) [1] [%]	efficacy (kill in %) [2] [%]	efficacy (kill in %) [3] [%]	efficacy (kill in %) [4] [%]	efficacy in % [5] [%]	efficacy in % [6] [%]	efficacy in % feeding damage [7] [%]	efficacy in % [8] [%]	chromatographic logP ([9]; HPLC, reversed-phase column (C18), acidic range pH 2.7, acetonitrile (0.1% formic acid)/water gradient, 43° C., calibration with unbranched alkan-2-ones, read-out: log p)	chromatographic logP ([9]; HPLC-MS)	log p ([9]; HPLC, reversed-phase column (C18), acidic range pH 2.7, acetonitrile (0.1% formic acid)/water gradient, 43° C., calibration with unbranched alkan-2-ones)
CCn1c(C(=O)NC(c2cccc(C(F)(F)F)c2)C(F)(F)F)cc2cc(C(=O)NC3(C#N)CC3)c(Cl)cc21 (stereo not shown) [Compound 7, 6-chloro-N^5-(1-cyanocyclopropyl)-1-ethyl-N^2-{2,2,2-trifluoro-1-[3-(trifluoromethyl)phenyl]ethyl}-1H-indole-2,5-dicarboxamide]	100	100	100	100	100	100	98	100	3.78	3.8	–
C#CCn1c(C(=O)NC(c2ccc(F)c(C(F)(F)F)c2)C(F)(F)F)cc2cc(C(=O)NC3CC3)c(Cl)cc21 (stereo not shown) [Compound 6]	100	100	100	100	100	100	90	100	–	–	3.59
